Assay results published in paper PMC8242095, “Crystal structure of an archaeal CorB magnesium transporter” (Nature Communications, 2021).
Values belong to the molecule of their own block, whether it stands above or below them.

What was measured:
MtCorBΔC = molecular target: T1, MtCorBΔC (Methanoculleus thermophilus, UniProt A0A1G8XA46); experiment: isothermal titration calorimetry; assay type: binding
T1 construct: gene corB; residues 1-322 (TMD, AHB, CBS-pair; CorC domain deleted), C-terminal His6-tag, E. coli C41(DE3), detergent-solubilized
Excerpt: isothermal titration calorimetry on MtCorBΔC | MtCorBΔC has the highest affinity for ATP, followed by ADP and AMP

MtCorBCBS = molecular target: T2, MtCorBCBS (Methanoculleus thermophilus, UniProt A0A1G8XA46); experiment: isothermal titration calorimetry; also crystal structure […] Å; assay type: binding
T2 construct: gene corB; CBS-pair domain, residues 199-322, GST-tag cut leaving N-terminal GPLGS, E. coli BL21(DE3); crystal 7MSU came from in situ cleavage of MtCorBΔC

[1] = molecular target: the molecule itself; experiment: crystal structure; MtCorBΔC R235L in 0.05% UDM, no ATP; hanging drop, 0.1 M sodium citrate pH 5.5, 50 mM Li2SO4, 11% PEG4000, 10 mM MgSO4, 22 °C; 3.8 Å
[2] = molecular target: the molecule itself; experiment: HDX-MS; MtCorB or MtCorBΔC in MSP1D1 nanodiscs, with and without Mg2+-ATP; exchange for 3, 30, 300 or 3000 s at 20 °C, 100 mM NaCl, 20 mM HEPES pH 7.5
[3] = molecular target: the molecule itself; experiment: crystal structure; MtCorBΔC_(Δloop) in 0.05% UDM with 5 mM ATP and 20 mM MgCl2; hanging drop, 0.1 M sodium citrate pH 5.5, 0.1 M Li2SO4, 0.1 M NaCl, 34% PEG400, 22 °C; 3.25 Å

- Kd (MtCorBΔC): 10.3 ± 1 µM
Molecule: Nc1ncnc2c1ncn2[C@@H]1O[C@H](COP(=O)(O)OP(=O)(O)O)[C@@H](O)[C@H]1O [ADP]

- Kd (MtCorBΔC): 83 ± 17 µM
Molecule: Nc1ncnc2c1ncn2[C@@H]1O[C@H](COP(=O)(O)O)[C@@H](O)[C@H]1O [AMP]

- Kd (MtCorBΔC): 0.59 ± 0.06 µM
- Kd (MtCorBCBS): 0.53 ± 0.05 µM
Molecule: Nc1ncnc2c1ncn2[C@@H]1O[C@H](COP(=O)(O)OP(=O)(O)OP(=O)(O)O)[C@@H](O)[C@H]1O [ATP]

B1: MtCorBΔC R235L (domain or fragment, Methanoculleus thermophilus, UniProt A0A1G8XA46 1-322, looked up)
chain: MVVIDLLIVEVVLFIAALLFSGFFSSSEVALISITRAKVHALQSQGRKGAKALDTLKRSTDAIQITTLIGSTIANVAVASLATAIGITLYGNLGIAVGLVVAAVLVLVFGEIGPKMYASRYTEELALRVSRPILFFSKLLYPVLWVTDRIEQQFAFRPGVTEPVVTEEEIKEWIDVGEEEGTIEEEERDMLYSVLRFGDTTAREVMTPRVDVVMIEDTATLESALAIFNETGFSLIPVYHERIDNIVGLLNVKDVFSAVFRQQTSATIRDLMYEPYFIPESKKIDELLKELQVKKQHMAVVLDEYGSFAGIVTVEDMLEELV
notes: CorB, Methanoculleus thermophilus, UniProt A0A1G8XA46, residues 1-322 (MtCorBΔC) with R235L; also called MtCorBΔC R235L mutant; apo conformation of MtCorBΔC; source: E. coli C41 (DE3), purified (Ni-NTA, SEC) in UDM
- binding result [1]: binds

B2: MtCorBΔC (residues 1–322) (domain or fragment, Methanoculleus thermophilus, UniProt A0A1G8XA46 1-322, looked up)
chain: MVVIDLLIVEVVLFIAALLFSGFFSSSEVALISITRAKVHALQSQGRKGAKALDTLKRSTDAIQITTLIGSTIANVAVASLATAIGITLYGNLGIAVGLVVAAVLVLVFGEIGPKMYASRYTEELALRVSRPILFFSKLLYPVLWVTDRIEQQFAFRPGVTEPVVTEEEIKEWIDVGEEEGTIEEEERDMLYSVLRFGDTTAREVMTPRVDVVMIEDTATLESALAIFNETGFSRIPVYHERIDNIVGLLNVKDVFSAVFRQQTSATIRDLMYEPYFIPESKKIDELLKELQVKKQHMAVVLDEYGSFAGIVTVEDMLEELV
notes: CorB, Methanoculleus thermophilus, UniProt A0A1G8XA46, residues 1-322 (CorC domain deleted); In nanodiscs of soybean polar extract and MSP1D1 (MtCorB:MSP1D1:lipid 2:10:550); filled nanodiscs were recovered on Ni-NTA; also called truncated MtCorB; MtCorB with a C-terminal CorC domain deletion; source: E. coli C41 (DE3), purified (Ni-NTA, SEC), reconstituted into MSP1D1 nanodiscs; not shown: His6, …
- binding result [2]: binds

B3: MtCorB (residues 1–426), Methanoculleus thermophilus CorB (natural protein, UniProt A0A1G8XA46 1-426, looked up)
chain: MVVIDLLIVEVVLFIAALLFSGFFSSSEVALISITRAKVHALQSQGRKGAKALDTLKRSTDAIQITTLIGSTIANVAVASLATAIGITLYGNLGIAVGLVVAAVLVLVFGEIGPKMYASRYTEELALRVSRPILFFSKLLYPVLWVTDRIEQQFAFRPGVTEPVVTEEEIKEWIDVGEEEGTIEEEERDMLYSVLRFGDTTAREVMTPRVDVVMIEDTATLESALAIFNETGFSRIPVYHERIDNIVGLLNVKDVFSAVFRQQTSATIRDLMYEPYFIPESKKIDELLKELQVKKQHMAVVLDEYGSFAGIVTVEDMLEELVGEILDEFDEEEPEVQQLEEGIYLVDARTWVEHLNEDLDLNLPLMDTYESIGGLVIERLGHIPRRGEVVKIEESNVTLVVMQMRGRRIVKVKLIIGPPVPPTESR
notes: CorB, Methanoculleus thermophilus, UniProt A0A1G8XA46, residues 1-426; In nanodiscs of soybean polar extract and MSP1D1; filled nanodiscs were recovered on Ni-NTA; also called full-length MtCorB; source: E. coli C41 (DE3), purified (Ni-NTA, SEC), reconstituted into MSP1D1 nanodiscs; not shown: His6, C-terminal, kept
- binding result [2]: binds

B4: MtCorBΔC_(Δloop) (Methanoculleus thermophilus CorB residues 1–322 Δ259–262) (domain or fragment, UniProt A0A1G8XA46 1-322, looked up)
chain: MVVIDLLIVEVVLFIAALLFSGFFSSSEVALISITRAKVHALQSQGRKGAKALDTLKRSTDAIQITTLIGSTIANVAVASLATAIGITLYGNLGIAVGLVVAAVLVLVFGEIGPKMYASRYTEELALRVSRPILFFSKLLYPVLWVTDRIEQQFAFRPGVTEPVVTEEEIKEWIDVGEEEGTIEEEERDMLYSVLRFGDTTAREVMTPRVDVVMIEDTATLESALAIFNETGFSRIPVYHERIDNIVGLLNVKDVFSAQTSATIRDLMYEPYFIPESKKIDELLKELQVKKQHMAVVLDEYGSFAGIVTVEDMLEELV
notes: CorB, Methanoculleus thermophilus, UniProt A0A1G8XA46, residues 1-322 (TMD, AHB and CBS-pair domain; CorC domain deleted) with the internal loop 259-262 deleted; Modelled: chain A residues 5-322, chain B residues 4-154 and 160-322; also called MtCorBΔC with an internal loop deletion; source: E. coli C41 (DE3), purified (Ni-NTA, SEC) in UDM
- binding result [3]: binds
